In data set [1] the target is cGMP-specific 3',5'-cyclic phosphodiesterase (Homo sapiens, UniProt O76074).
A short description of data set [2]: Oral bioavailability in Sprague-Dawley rat by LC-MS/MS analysis. It is filed as ADME, organism-based. The note with it: in vivo.
For data set [3], the species on record is Rattus norvegicus. The note with it: Wistar, 10 mg/kg.
Data set [4] concerns Rattus norvegicus. Put plainly: Reduction in MCT-induced increase in mean pulmonary arterial pressure in Wistar rat model of monocrotaline pulmonary arterial hypertension assessed as mean pulmonary arterial pressure at 10 mg/kg, po for 3 weeks (reference value: 32.74 mmHg). It is filed as functional.
Data set [5] can be described thus: Oral bioavailability in rat. It is filed as ADME, organism-based. The conditions noted are these: in vivo.
The test system of data set [6] is Liver. Nature of the data set: Intrinsic clearance in rat liver microsomes. It is filed as ADME, microsome. A general note: Liver microsomes are a subcellular fraction often used to study metabolism.
Data set [7] in a line: Hepatic extraction ratio in rat liver microsomes. The conditions noted are these: read-out: ERH. The class given is ADME, microsome.
Data set [8] can be described thus: Apparent clearance in rat liver microsomes. The class given is ADME, microsome. The conditions noted are these: read-out: CLH(app).
Data set [9] is described as follows: Hepatic extraction ratio in human microsomes. The note with it: liver microsomes, read-out: ERH. The class given is ADME, microsome.
Data set [10] is described as follows: Half life in rat liver microsomes. The class given is ADME, microsome.
A short description of data set [11]: Half life in human microsomes. It is filed as ADME, microsome. The conditions noted are these: liver microsomes.
Data set [12] in a line: Hepatic clearance in rat liver microsomes. The class given is ADME, microsome.
In data set [13] the test system is Liver. Put plainly: Drug metabolism in human liver microsomes assessed as metabolic rate. The class given is ADME, microsome.
Data set [14] concerns Liver. Nature of the data set: Drug metabolism in rat liver microsomes assessed as metabolic rate. The class given is ADME, microsome.
Data set [15] concerns Liver. Nature of the data set: Intrinsic clearance in human liver microsomes. It is filed as ADME, microsome.
The nature of data set [16]: Hepatic clearance in human microsomes. It is filed as ADME, microsome. The note with it: liver microsomes.
The nature of data set [17]: Apparent clearance in human microsomes. The class given is ADME, microsome. The note with it: liver microsomes, read-out: CLH(app).

SMILES strings stand for the structures. pIC50: −log10 of the molar value. The source made the active and inactive calls. The rule behind the calls is not given here.

The pIC50 is the negative decadic logarithm of the IC50, by convention in mol/L. A lower pIC50 goes with a large IC50. Consider `O=c1c2ccccc2oc2c(Cc3ccc(O)cc3)[nH]c(-c3cccnc3O)c12`, for which, in data set [1], the negative-log IC50 (pIC50) is under 7.00.

Molecule `O=c1c2ccccc2oc2c(Cc3ccc(O)cc3)[nH]c(-c3cc(Cl)ccn3)c12` had a negative logarithm of the IC50 (pIC50) in data set [1] of under 7.00.

`O=c1c2ccccc2oc2c(Cc3ccc(O)cc3)[nH]c(-c3ccncc3)c12` showed a negative logarithm of the IC50 (pIC50) in data set [1] of under 7.00.

Take `Cc1ccc(-c2[nH]c(Cc3ccc(O)cc3)c3oc4ccccc4c(=O)c23)cc1`: the pIC50 in [1] is under 7.00.

In turn, `Cc1nnc(-c2[nH]c(Cc3ccc(O)cc3)c3oc4ccccc4c(=O)c23)o1` had a pIC50 in data set [1] of under 7.00.

`CC(C)(C)Oc1ccc(Cc2[nH]c(-c3nccs3)c3c(=O)c4ccccc4oc23)cc1`: the negative-log IC50 (pIC50) in data set [1] is under 7.00.

One may read the bioavailability as dose-corrected exposure relative to a reference, in per cent. A lower bioavailability goes with little systemic uptake. Regarding `O=c1c2ccccc2oc2c(Cc3ccc(O)cc3)[nH]c(-c3nccs3)c12`, the bioavailability in data set [2] was under 10%. In data set [1], the pIC50 is 8.27.

`O=c1c2ccccc2oc2c(Cc3ccc(O)cc3)[nH]c(-c3ccncn3)c12` had a negative-log IC50 (pIC50) in data set [1] of 7.25.

In data set [1], `COC(=O)c1[nH]c(Cc2ccc(O)cc2)c2oc3ccccc3c(=O)c12` showed a negative-log IC50 (pIC50) of 7.51. This pIC50 is 0.26 log units higher than that of the molecule before.

`CCCc1nn(C)c2c(=O)[nH]c(-c3cc(S(=O)(=O)N4CCN(C)CC4)ccc3OCC)nc12.O=C(O)CC(O)(CC(=O)O)C(=O)O` [SILDENAFIL CITRATE]: the inhibition result in the data set filed under Rattus norvegicus [3] was “Active”. Besides, in the data set on Rattus norvegicus [4], the Activity is 22.13 mmHg. Further, the bioavailability in data set [5] is 41%.

As for `O=c1c2ccccc2oc2c(Cc3ccc(O)cc3)[nH]c(-c3cccnc3Cl)c12`, the negative logarithm of the IC50 (pIC50) in data set [1] was under 7.00.

Molecule `O=c1c2ccccc2oc2c(Cc3ccc(O)cc3)[nH]c(-c3ccc(Cl)cn3)c12` gave a negative-log IC50 (pIC50) in [1] of 7.30.

Turning to `CC(C)N1CCN(C(=O)c2[nH]c(Cc3ccc(O)cc3)c3oc4ccccc4c(=O)c23)CC1`, the pIC50 in data set [1] is under 7.00.

For the molecule `COc1ncccc1-c1[nH]c(Cc2ccc(O)cc2)c2oc3ccccc3c(=O)c12`, the pIC50 in data set [1] is under 7.00.

Regarding `O=c1c2ccccc2oc2c(Cc3ccc(O)cc3)[nH]c(-c3ccncc3Cl)c12`, in data set [1], the pIC50 is under 7.00.

Molecule `O=c1c2ccccc2oc2c(Cc3ccc(C(F)(F)F)cc3)[nH]c(-c3nccs3)c12` showed a pIC50 in [1] of 7.52.

For the molecule `O=c1c2ccccc2oc2c(Cc3ccc(O)cc3)[nH]c(-c3ccccn3)c12`, in data set [1], the pIC50 is 7.68.

In data set [1], `O=C(c1[nH]c(Cc2ccc(O)cc2)c2oc3ccccc3c(=O)c12)N1CCOCC1` had a pIC50 of under 7.00.

As to `O=C(c1[nH]c(Cc2ccc(O)cc2)c2oc3ccccc3c(=O)c12)N1CCN(C2CC2)CC1`, the negative logarithm of the IC50 (pIC50) in [1] was under 7.00.

By half-life is commonly meant the time in which the quantity being followed falls by half. Read a high half-life as slow decline. Take `Cc1ncc2n1-c1ccc(Cl)cc1C(c1ccccc1F)=NC2` [MIDAZOLAM]: the CLH came out at 574 µL/min/mg in the data set on Liver [6] and 506.4 µL/min/mg with Liver [15]. Further, the hepatic extraction ratio in data set [7] stood at 0.95; in data set [9], 0.96. Moreover, the figures for the CLint scaled in data set [8] and in [17] were 1040 mL/min/kg and 488 mL/min/kg, respectively. The half-life in [10] was 2.4 min; in [11], 2.7 min. For the same molecule, the CLhep predicted is 53.2 mL/min/kg in data set [12] and 19.2 mL/min/kg in data set [16]. Besides, the K in the data set on Liver [13] amounted to 0.2532; in the data set with Liver [14] it was 0.2877.

Regarding `O=c1c2ccccc2oc2c(Cc3ccc(O)cc3)[nH]c(-c3ccccc3F)c12`, the negative logarithm of the IC50 (pIC50) in data set [1] was 7.80.

Molecule `O=c1c2ccccc2oc2c(Cc3ccc(O)cc3)[nH]c(-c3cccnc3)c12` showed a negative-log IC50 (pIC50) in [1] of 7.11.

These data come from ChEMBL document CHEMBL4011656, “Discovery and Optimization of Chromeno[2,3-c]pyrrol-9(2H)-ones as Novel Selective and Orally Bioavailable Phosphodiesterase 5 Inhibitors for the Treatment of Pulmonary Arterial Hypertension” (J Med Chem, 2017).
